System: C57BL/KsJ db/db mice
Experiment: Hypoglycemic effect of single or combined oral administration in db/db mice (plasma glucose concentration)
Assay type: in vivo, mouse
Settings: 14th day, 2 hours after oral administration; for Decreasing rate (of plasma glucose concentration vs control group): calculated from group means vs control group; for Plasma glucose concentration: mean±standard deviation for 6 mice, control group 519 ± 69
Protocol: As test animals, C57BL/KsJ db/db mice were used, which were created in Jackson Laboratory (USA) and known as an obesity, hyperlipemia, hyperinsulinemia, and insulin-resistant model (Journal of Clinical Investigation, 85, pp 962-967, 1990). Blood was collected from the orbital venous plexus of each 7-week-old db/db mouse using a heparin-treated capillary tube, and centrifugation was performed to collect plasma. Thereafter, the plasma glucose concentration (Glucose CII-Test Wako (Wako Pure Chemical Industries, Ltd.)), the insulin concentration (Lebis Insulin Kit: for mouse-T (SHIBAYAGI)), and the triglyceride concentration (Triglyceride E-Test Wako (Wako Pure Chemical Industries, Ltd.)) were measured for classification. The classification was performed so that distribution of each measurement item is uniform for each group by block allocation based on many variables in which the plasma glucose concentration is most emphasized using the measured values of the plasma glucose concentration, the body weight, the insulin concentration, and the triglyceride concentration. […] Two hours after the administration, blood was collected from the orbital venous plexus, and the plasma thereof was collected to measure the plasma glucose concentration. […] Each plasma glucose concentration is expressed as mean±standard deviation for 6 mice of each group. Each decreasing rate is calculated from ((mean of plasma glucose concentration of control group)−(mean of plasma glucose concentration of each group))/(mean of plasma glucose concentration of control group)×100, while each relative index is calculated from (mean of plasma glucose concentration of each group)/(mean of plasma glucose concentration of control group).

SMILES | Relative index (mean plasma glucose of group / mean of control group) | Decreasing rate (of plasma glucose concentration vs control group) | Decreasing rate (of plasma glucose concentration vs control group) (listed as glibenclamide) | Plasma glucose concentration | Decreasing rate (of plasma glucose concentration vs control group) (listed as sodium 2,2-dichloro-12-(4-chlorophenyl)-dodecanoate)
COc1ccc(Cl)cc1C(=O)NCCc1ccc(S(=O)(=O)NC(=O)NC2CCCCC2)cc1 [Glibenclamide] | 0.79 | 21% | 21% | 412 ± 153 mg/dL | –
O=C([O-])C(Cl)(Cl)CCCCCCCCCCc1ccc(Cl)cc1.[Na+] [sodium 2,2-dichloro-12-(4-chlorophenyl)-dodecanoate] | 0.49 | 51% | – | 253 ± 75 mg/dL | 51%

Reference: patent US20050261349A1, “Medicine for prevention or treatment of diabetes” (priority 2004, published 2005)
